The structures appear in SMILES notation. Read-outs that look alike come from different tables or passages of the source.

The target of experiment [1] is GSK3α (Homo sapiens (Human), UniProt P49840). As to the kind of experiment: GSK 3α enzyme inhibition (FRET, Z-LYTE; Method 2). The format is biochemical. A digest of the protocol:
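GSK3-α protein preincubated with compound for 105 min, then Z-LYTE FRET peptide and ATP added for 1 h before protease development for 1 h. Phosphorylation taken from coumarin/fluorescein emission ratio; percent inhibition against uninhibited control and IC50 calculated from concentration-response curves.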

Experiment [2] has as its system PBMCs. As to the kind of experiment: LPS-induced TNFα/IL-8 release in PBMC cells. As to conditions: Homo sapiens, LPS-stimulated PBMCs. Format: cell-based. The procedure, abridged: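 Human PBMCs from healthy donors, isolated by density gradient, were pretreated with compound for 2 h and then stimulated with 1 ng/mL LPS (E. coli 0111:B4) for 24 h at 37° C, 5% CO2. Supernatant IL-8 and TNFα were measured by sandwich ELISA, and IC50 was taken from the dose-response curve.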

Experiment [3] addresses c-Src (Homo sapiens (Human), UniProt P12931). As to the kind of experiment: c-Src enzyme inhibition (FRET, Z-LYTE). Format: biochemical. The method, then: (§1) The enzyme inhibitory activities of compounds disclosed herein are determined by FRET using synthetic peptides labelled with both donor and acceptor fluorophores (Z-LYTE, Invitrogen Ltd., Paisley, UK).
(§2) The inhibitory activities of compounds of the invention against c-Src and Syk enzymes (Invitrogen), are evaluated in a similar fashion to that described hereinabove. The relevant enzyme (3000 ng/mL or 2000 ng/mL respectively, 2.5 μL) is incubated with the test compound (either 4 μg/mL, 0.4 μg/mL, 0.04 μg/mL, or 0.004 μg/mL, 2.5 μL each) for 2 hr at RT. The FRET peptides (8 μM. 2.5 μL), and appropriate ATP solutions (2.5 μL, 800 μM for c-Src, and 60 μM ATP for Syk) are then added to the enzymes/compound mixtures and incubated for 1 hr. Development reagent (protease, 5 μL) is added for 1 hr prior to detection in a fluorescence microplate reader (Varioskan® Flash, ThermoFisher Scientific).
(§3) In all cases, the site-specific protease cleaves non-phosphorylated peptide only and eliminates the FRET signal. Phosphorylation levels of each reaction are calculated using the ratio of coumarin emission (donor) over fluorescein emission (acceptor), for which high ratios indicate high phosphorylation and low ratios indicate low phosphorylation levels. The percentage inhibition of each reaction is calculated relative to non-inhibited control and the 50% inhibitory concentration (IC50 value) is then calculated from the concentration-response curve.

Experiment [4] concerns HT29 cells. Briefly: IL-1β-induced IL-8 release in HT29 cells. The format is cell-based. As to conditions: Homo sapiens, HT-29, IL-1β-stimulated HT29 cells, read-out: IC50 Values for Inhibition of Cytokine Release, HT29 cells IL-8. The method, then:
HT29 cells, a human colon adenocarcinorna cell line, are plated in a 96 well plate (24 hrs) and pre-treated with compounds at the desired concentration for 2 hours before addition of 5 ng/mL of IL-1β (Abcam) for 24 hours. Supernatants are harvested for IL-8 quantification by Sandwich ELISA (Duo-set, R&D System). The IC50 is determined from the dose response curve.

The target in experiment [5] is Syk (Homo sapiens (Human), UniProt P43405). As to the kind of experiment: Syk enzyme inhibition (FRET, Z-LYTE). The format is biochemical. The method, then: as §1, §2, §3
In experiment [6] the target is p38 MAPKα (Homo sapiens (Human), UniProt Q16539). As to the kind of experiment: p38 MAPKα enzyme inhibition (FRET, Z-LYTE; Method 2). Format: biochemical. The method, then: as §1
Sequence of p38 MAPKα (Q16539 whole entry, canonical isoform): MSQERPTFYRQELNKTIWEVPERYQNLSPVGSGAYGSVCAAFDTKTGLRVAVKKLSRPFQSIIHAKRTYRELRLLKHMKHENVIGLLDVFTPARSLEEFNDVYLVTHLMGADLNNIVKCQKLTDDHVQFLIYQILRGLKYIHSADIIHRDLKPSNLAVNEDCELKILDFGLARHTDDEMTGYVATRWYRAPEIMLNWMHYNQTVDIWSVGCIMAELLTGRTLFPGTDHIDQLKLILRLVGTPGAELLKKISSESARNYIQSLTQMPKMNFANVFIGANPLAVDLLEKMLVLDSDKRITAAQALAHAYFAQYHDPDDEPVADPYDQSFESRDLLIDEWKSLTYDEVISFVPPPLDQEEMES
The inhibitory activities of test compounds against the p38 MAPKα isoform (MAPK14: Invitrogen), are evaluated indirectly by determining the level of activation/phosphorylation of the down-stream molecule, MAPKAP-K2. The p38 MAPKα protein (80 ng/mL, 2.5 μL) is mixed with the test compound (2.5 μL of either 4 μg/mL, 0.4 μg/mL, 0.04 μg/mL or 0.004 μg/mL) for 2 hr at RT. […] The mixture is incubated for 1 hr at RT. Development reagent (protease, 5 μL) is added for 1 hr prior to detection in a fluorescence microplate reader (Varioskan® Flash, ThermoFisher Scientific).
Method 2 This method follows the same steps as Method 1 above, but utilises a higher concentration of the p38 MAPKα protein (2.5 μL of 200 ng/mL protein instead of 2.5 μL of 80 ng/mL protein) for mixing with the test compound.
as §3

In experiment [7] the test system is d-U937 cells. As to the kind of experiment: LPS-induced TNFα/IL-8 release in d-U937 cells. Format: cell-based. As to conditions: Homo sapiens, dU937, LPS-stimulated d-U937 cells. The method, then: U937 cells, a human monocytic cell line, are differentiated to macrophage-type cells by incubation with phorbol myristate acetate (PMA; 100 ng/mL) for 48 to 72 hr. Cells are pre-incubated with final concentrations of test compound for 2 hr and are then stimulated with 0.1 μg/mL of LPS (from E. Coli: O111:B4, Sigma) for 4 hr. The supernatant is collected for determination of TNFα and IL-8 concentrations by sandwich ELISA (Duo-set, R&D systems). The inhibition of TNFα production is calculated as a percentage of that achieved by 10 μg/mL of BIRB796 at each concentration of test compound by comparison against vehicle control. The relative 50% effective concentration (REC50) is determined from the resultant concentration-response curve. The inhibition of IL-8 production is calculated at each concentration of test compound by comparison with vehicle control. The 50% inhibitory concentration (IC50) is determined from the resultant concentration-response curve.

Experiment [8] concerns PBMCs. As to the kind of experiment: IL-2 and IFN gamma release in CD3/CD28 stimulated PBMC cells. Format: cell-based. As to conditions: Homo sapiens. The protocol:
PBMCs from healthy subjects are separated from whole blood using a density gradient (Lymphoprep, Axis-Shield Healthcare). Cells are added to a 96 well plate pre-coated with a mixture of CD3/[…] monoclonal antibodies (0.3 μg/mL eBioscience and 3 μg/mL BD Pharmingen respectively). Compound at the desired concentration is then added to the wells and the plate left for 3 days under normal tissue culture conditions. Supernatants are harvested and IL-2 and IFN gamma release determined by Sandwich ELISA (Duo-set, R&D System). The IC50 is determined from the dose response curve.

The mark [9] stands for this setting: IL-8, read-out: IC50 Values for Inhibition of Cytokine Release, PBMCs IL-8.
The mark [10] stands for this setting: TNFα (REC50 relative to BIRB796 per method), read-out: IC50 Values for Inhibition of Cytokine Release, dU937 cells TNFα.
[11] abbreviates: IL-2, read-out: IC50 Values for Inhibition of Cytokine Release, PBMCs IL-2.
The mark [12] stands for this setting: IFNγ, read-out: IC50 Values for Inhibition of Cytokine Release, PBMCs IFNγ.

Sequence of GSK3α (P49840 whole entry): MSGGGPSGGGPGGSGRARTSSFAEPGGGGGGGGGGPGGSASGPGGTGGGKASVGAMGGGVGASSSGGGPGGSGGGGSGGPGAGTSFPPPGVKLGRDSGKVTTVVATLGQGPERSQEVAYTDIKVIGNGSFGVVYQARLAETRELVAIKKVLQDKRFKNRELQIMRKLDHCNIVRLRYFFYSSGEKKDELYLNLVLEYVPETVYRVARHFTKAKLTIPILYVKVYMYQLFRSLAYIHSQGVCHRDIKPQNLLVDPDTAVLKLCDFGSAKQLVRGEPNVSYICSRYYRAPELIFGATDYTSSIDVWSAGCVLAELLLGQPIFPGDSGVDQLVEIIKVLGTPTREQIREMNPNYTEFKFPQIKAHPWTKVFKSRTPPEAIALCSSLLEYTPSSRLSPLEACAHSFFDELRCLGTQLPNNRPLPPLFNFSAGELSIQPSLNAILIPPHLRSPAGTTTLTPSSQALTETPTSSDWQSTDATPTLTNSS
Sequence of c-Src (P12931 whole entry, looked up): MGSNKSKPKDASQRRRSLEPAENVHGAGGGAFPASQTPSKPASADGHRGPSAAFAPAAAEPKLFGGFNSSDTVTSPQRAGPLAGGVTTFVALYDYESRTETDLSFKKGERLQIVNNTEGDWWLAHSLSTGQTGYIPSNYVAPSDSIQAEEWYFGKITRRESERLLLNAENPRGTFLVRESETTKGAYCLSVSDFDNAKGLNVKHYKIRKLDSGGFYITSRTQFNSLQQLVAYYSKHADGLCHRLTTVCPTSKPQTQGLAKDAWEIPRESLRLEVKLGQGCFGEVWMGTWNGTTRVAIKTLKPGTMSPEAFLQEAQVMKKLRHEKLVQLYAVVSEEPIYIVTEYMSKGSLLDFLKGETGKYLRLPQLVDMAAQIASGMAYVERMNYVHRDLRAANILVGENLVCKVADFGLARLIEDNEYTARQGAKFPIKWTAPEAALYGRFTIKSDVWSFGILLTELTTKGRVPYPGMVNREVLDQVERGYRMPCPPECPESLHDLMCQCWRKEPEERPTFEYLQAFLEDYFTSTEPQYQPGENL

The IC50 is the concentration needed to halve the response being measured. Turning to `CN(c1ccccc1)c1nccc(Oc2ccc(NC(=O)Nc3cc(C(C)(C)C)nn3-c3ccc(P(C)(C)=O)cc3)c3ccccc23)n1` [Example 15, 1-(3-(tert-Butyl)-1-(4-(dimethylphosphoryl)phenyl)-1H-pyrazol-5-yl)-3-(4-((2-(methyl-(phenyl)amino)pyrimidin-4-yl)oxy)naphthalen-1-yl)urea], the IC50 in experiment [1] was > 10000 nM; in experiment [2] (setting [9]), 680 nM; in experiment [2] (TNFα, read-out: IC50 Values for Inhibition of Cytokine Release, PBMCs TNFα), 200 nM; in experiment [3], > 1000 nM; in experiment [4], 632 nM; in experiment [5], > 1000 nM. In addition, the IC50 in experiment [6] came out at 56 nM; in experiment [7] (IL-8, read-out: IC50 Values for Inhibition of Cytokine Release, dU937 cells IL-8), 398 nM; in experiment [7] (setting [10]) it was 182 nM.

For `COc1cc(Nc2nccc(Oc3ccc(NC(=O)Nc4cc(C(C)C)nn4-c4cccc(CP(C)(C)=O)c4)c4ccccc34)n2)cc(OCCN2CCOCC2)c1` [Example 39, 1-(1-(3-((Dimethylphosphoryl)methyl)phenyl)-3-isopropyl-1H-pyrazol-5-yl)-3-(4-((2-((3-methoxy-5-(2-morpholinoethoxy)phenyl)amino)pyrimidin-4-yl)oxy)naphthalen-1-yl)urea], the IC50 came to 2230 nM in experiment [1]; 1.2 nM in experiment [2] (setting [9]); 3 nM in experiment [3]; 4.6 nM in experiment [4]; 1 nM in experiment [5]; 13 nM in experiment [6]. Besides, the IC50 in experiment [7] (setting [10]) was determined as 0.5 nM.

Take `CC(C)(C)c1cc(NC(=O)Nc2ccc(Oc3ccnc(Nc4ccccc4)c3)c3ccccc23)n(-c2cccc(CP(C)(C)=O)c2)n1` [Example 41, 1-(3-(tert-Butyl)-1-(3-((dimethylphosphoryl)methyl)phenyl)-1H-pyrazol-5-yl)-3-(4-((2-(phenylamino)pyridin-4-yl)oxy)naphthalen-1-yl)urea]: the IC50 was 4300 nM in experiment [1]; 2.8 nM in experiment [2] (setting [9]); 56.4 nM in experiment [8] (setting [11]); 56 nM in experiment [3]; 4.7 nM in experiment [4]; 96 nM in experiment [5]. The compound also displayed an IC50 in experiment [6] of 357 nM.

As to `CC(C)c1cc(NC(=O)Nc2ccc(Oc3ccnc(Nc4ccccc4)c3)c3ccccc23)n(-c2cccc(CP(C)(C)=O)c2)n1` [Example 42, 1-(1-(3-((Dimethylphosphoryl)methyl)phenyl)-3-isopropyl-1H-pyrazol-5-yl)-3-(4-((2-(phenylamino)pyridin-4-yl)oxy)naphthalen-1-yl)urea], the IC50 in experiment [1] was 6980 nM; in experiment [2] (setting [9]), 5.5 nM; in experiment [3], 47 nM; in experiment [4], 5.6 nM; in experiment [5], 63 nM.

As for `CC(C)(C)c1cc(NC(=O)Nc2ccc(Oc3ccnc(Nc4ccccc4)c3)c3ccccc23)n(-c2cccc(CP3(=O)CCCC3)c2)n1` [Example 44, 1-(3-(tert-Butyl)-1-(3-((1-oxidophospholan-1-yl)methyl)phenyl)-1H-pyrazol-5-yl)-3-(4-((2-(phenylamino)pyridin-4-yl)oxy)naphthalen-1-yl)urea], the IC50 was 8040 nM in experiment [1], 4 nM in experiment [2] (setting [9]), 7.1 nM in experiment [4] and 201 nM in experiment [6].

For the compound `CC(C)c1cc(NC(=O)Nc2ccc(Oc3ccnc(Nc4cc(OCCN5CCOCC5)cc(OC(F)(F)F)c4)n3)c3ccccc23)n(-c2cccc(CP(C)(C)=O)c2)n1` [Example 48, 1-(1-(3-((Dimethylphosphoryl)methyl)phenyl)-3-isopropyl-1H-pyrazol-5-yl)-3-(4-((2-((3-(2-morpholinoethoxy)-5-(trifluoromethoxy)phenyl)amino)pyrimidin-4-yl)oxy)naphthalen-1-yl)urea], the IC50 in experiment [1] was > 10000 nM; in experiment [2] (setting [9]), 1.5 nM; in experiment [8] (setting [11]), 53.4 nM; in experiment [3] it was 87 nM; in experiment [4] it was 4.3 nM; in experiment [5], 232 nM. The IC50 in experiment [6] was 231 nM.

With `CC(C)c1cc(NC(=O)Nc2ccc(Oc3ccnc(Nc4cc(OCCN5CCOCC5)cc(C(F)(F)F)c4)n3)c3ccccc23)n(-c2cccc(CP(C)(C)=O)c2)n1` [Example 49, 1-(1-(3-((Dimethylphosphoryl)methyl)phenyl)-3-isopropyl-1H-pyrazol-5-yl)-3-(4-((2-((3-(2-morpholinoethoxy)-5-(trifluoromethyl)phenyl)amino)pyrimidin-4-yl)oxy)naphthalen-1-yl)urea], the IC50 in experiment [1] was > 10000 nM; in experiment [2] (setting [9]), 1.4 nM; in experiment [8] (setting [12]) it was 5.1 nM; in experiment [8] (setting [11]) it was 45.6 nM; in experiment [3], 95 nM; in experiment [4], 3.8 nM. Moreover, the IC50 came out at 219 nM in experiment [5] and 202 nM in experiment [6].

Take `CC(C)(C)c1cc(NC(=O)Nc2ccc(Oc3ccnc(Nc4cc(OCCN5CCOCC5)cc(C(F)(F)F)c4)n3)c3ccccc23)n(-c2cccc(CP(C)(C)=O)c2)n1` [Example 61, 1-(3-(tert-Butyl)-1-(3-((dimethylphosphoryl)methyl)phenyl)-1H-pyrazol-5-yl)-3-(4-((2-((3-(2-morpholinoethoxy)-5-(trifluoromethyl)phenyl)amino)pyrimidin-4-yl)oxy)naphthalen-1-yl)urea]: the IC50 in experiment [1] came out at 4190 nM; in experiment [2] (setting [9]), 2.3 nM; in experiment [8] (setting [12]), 3.3 nM; in experiment [8] (setting [11]), 50.7 nM; in experiment [3] it was 14 nM; in experiment [4], 2.6 nM. Also, the concentration for half-maximal inhibition (IC50) turned out to be 24 nM in experiment [5] and 303 nM in experiment [6].

Values taken from patent publication US9796742B2, “Kinase inhibitors” (Respivert Limited, priority 2012, dated 2017).
